Data on 88 compounds can be found in a melting point compilation (Tetko et al.; mined from patent text by program, amines drawn as free bases though some values may be those of a salt).

The term melting point denotes the temperature, or range, at which the solid turns liquid. In turn, `COC(=O)c1cccc(OC(F)(F)C(F)Br)c1` (stereo not drawn) showed a melting point of 88 to 90 °C.

Compound `COC(=O)C(C)Oc1ccccc1S(=O)(=O)NC(=O)Nc1nc(C)cc(C)n1` (stereo not drawn) had a melting point of 200 to 203 °C.

For the compound `O=C(O)c1cccc(-c2cccc3c2CCN(Cc2cccc(C(F)(F)F)c2)C3)c1`, the melting point lay within 230 to 231 °C.

With `O=C1C2=C(CCCC2)C(=O)N1c1c(F)cc(F)cc1F`, the melting point lay within 91 to 92 °C.

With `CC(=O)OCC1OC([NH+]2C=NC(C#N)=C2[O-])C(OC(C)=O)C1OC(C)=O` (stereo not drawn), the melting point lay within 160 to 161 °C.

Compound `Cc1nnc(-c2ccc3occ(-c4ccc(S(C)(=O)=O)cc4)c3n2)o1` returned a melting point of 250 to 251 °C.

`Cc1cccc(-c2nc(C(C)C)[nH]c2-c2ccc(F)c(-c3ccc(NS(=O)(=O)C4CC4)cc3)c2)n1`: the melting point is 119 to 129 °C.

Take `O=[N+]([O-])c1ccccc1Cc1ncc[nH]1`: the melting point was 155 to 157 °C.

`CC(C)n1cc(-c2nc(C#N)c(N)nc2-c2ccccc2F)ccc1=O` gave a melting point of 211 °C.

Take `CCCn1c(=O)[nH]c2ccc(C(=O)c3ncc4ccc(C(=O)O)cn34)cc2c1=O`: the melting point is 384 °C.

As for `O=C(O)c1ccc(Oc2ccc3c(c2)CCN(C2CCN(C4CCC4)CC2)C3=O)cc1`, the melting point was in the range of 255 to 256 °C.

Consider `CS(=O)(=O)c1ccc(Cc2ccc(CCNS(=O)(=O)c3ccc(Cl)cc3)c(CCC(=O)O)c2)cc1`, for which the melting point was in the range of 105 to 107 °C.

The compound `CCCC(=O)c1cnc2c(OCCCN(C)C)cccc2c1Nc1ccccc1C` returned a melting point of 109 to 110 °C.

Compound `NS(=O)(=O)c1cc(C(=O)O)cc(NCc2ccccc2)c1Sc1ccccc1` registered a melting point of 224 to 225 °C.

Regarding `COC(=O)[C@H](Cc1c[nH]cn1)NC(=O)[C@H](CCC(N)=O)NC(=O)OCc1ccccc1`, the melting point lay within 186 to 188 °C.

Take `COC(=O)c1cc(F)c(N2CCC(NC(C)=O)C2)nc1Nc1ccc(F)cc1F` (stereo not drawn): the melting point lay in the range of 199 to 200 °C.

`COc1cc2c(cc1OC)-c1cc(=O)n(C(C)C)c(=O)n1CC2` yielded a melting point of 190 to 192 °C.

Compound `O=C(O)C=Cc1ccc(OCC2CN(c3ccccc3)C(=O)O2)cc1` (stereo not drawn) displayed a melting point of 239 to 240 °C.

In turn, `O=C(O)CCCC(=O)c1cccc([N+](=O)[O-])c1` returned a melting point of 135 to 137 °C.

Consider `CCCCC(CC(=O)O)c1cc(Cl)c(OC)cc1OC` (stereo not drawn), for which the melting point is 91 to 92 °C.

Consider `CCOCc1nc2c(N)nc3ccccc3c2n1CCCC(C)N(OC)S(C)(=O)=O` (stereo not drawn), for which the melting point is 146 to 148 °C.

`CC(C)c1ccc2c(c1)c(Sc1ccccc1)c(CC(C)(C)C(=O)O)n2Cc1ccc(Cl)cc1` yielded a melting point of 162 to 165 °C.

With `CC(C)c1cc2ncccc2cc1Oc1cnc(NC(CO)CO)nc1N`, the melting point was in the range of 172 to 174 °C.

On to `COc1ccc2cc(C=O)ccc2c1Br`, for which the melting point is 133 to 135 °C.

With `CCOC(=O)c1ccc([N+](=O)[O-])c(O)c1`, the melting point fell in the range of 80 to 81 °C.

`Cc1sc(-c2ccccc2)nc1COc1ccc(CCl)cc1` registered a melting point of 100 to 101 °C.

Turning to `COc1ccc(-c2cc(=Nc3c(C)cc(C)cc3C)n(C)c(NN)n2)cc1OC`, the melting point was more than 300 °C.

`CC(=O)OC1CSC(Oc2ccc(-c3cccnc3C)nc2)C(OC(C)=O)C1OC(C)=O` (stereo not drawn) returned a melting point of 198 to 200 °C.

The compound `Cc1ccc(C(Cn2cncn2)=NOCc2c(Cl)cccc2Cl)c(Cl)c1` showed a melting point of 97 to 99 °C.

Compound `CCn1ncnc1COc1nn2c(-c3ccccc3F)nncc2c1C(C)(C)C` came in with a melting point of 105 °C.

In turn, `Nc1ccccc1CCCC(C(=O)O)N1C(=O)c2ccccc2C1=O` (stereo not drawn) registered a melting point of 258 to 260 °C.

In the case of `Fc1cc(CC2(Cc3ccnc(F)c3)c3cccnc3-c3ncccc32)ccn1`, the melting point is 239 to 241 °C.

On to `CS(=O)c1ccc(C2=C(c3ccccc3)C(=O)C(C)(C)O2)c(Cl)c1` (stereo not drawn), for which the melting point lay in the range of 135 to 136 °C.

The compound `CC(C)CC1N=C(c2ccccc2)c2cc(Cl)ccc2NC1=O` (stereo not drawn) returned a melting point of 213 °C.

Turning to `CN(C)CCSc1ccc2ccc(N)nc2n1`, the melting point is 174 °C.

Take `COC(=O)[C@H](Cc1ccccc1)NC(=O)c1cnccn1`: the melting point is 152 to 155 °C.

Take `COc1ccc(-c2cccc(Nc3nccc(-c4sc(N)nc4-c4ccccc4)n3)c2)cc1OC`: the melting point was 236 to 237 °C.

Compound `CS(=O)(=O)Nc1ccc(OC2CCN(c3ccncc3)CC2)cc1` returned a melting point of 191 to 192 °C.

`N#Cc1ccccc1CNC(=O)C1Cc2ccccc2N1S(=O)(=O)c1ccc(-c2cccc(C(F)(F)F)c2)cc1` (stereo not drawn) yielded a melting point of 70 °C.

For the compound `Cc1cc(C=NNC(N)=S)ncc1NO`, the melting point lay in the range of 197 to 198 °C.

As to `COC(CN(C)C(=O)Nc1ccc(Oc2cccc(C(F)(F)F)c2)cc1)OC`, the melting point was 86 to 88 °C.

Turning to `CCOC(=O)C1C(=O)N(C)C(=S)N(C)C1=O`, the melting point is 90 to 93 °C.

`CC(=O)Nc1c(C#N)cnn1-c1ccc(Cl)c(Cl)c1Cl` returned a melting point of 222 to 224 °C.

Compound `O=C(Nc1ccccc1)Nc1nc2ccc(OC(=O)c3ccccc3)cc2s1` yielded a melting point of 245 to 249 °C.

Take `O=C(Cl)N1CC(Oc2ccc(Cl)cc2)C1`: the melting point is 78 to 80 °C.

As for `CCOC(=O)C1=C(C)OC(N)=C(C(=O)OCC)C1c1cccc([N+](=O)[O-])c1` (stereo not drawn), the melting point was 161 °C.

`CC(=O)Nc1ccc(-c2ccoc2)cc1[N+](=O)[O-]` had a melting point of 152 to 154 °C.

As for `CCCCOC(=O)[C@H]1CN(c2ccc3c(c2)sc(=O)n3C)C(=O)O1`, the melting point was in the range of 85 to 87 °C.

Turning to `CCCCCCCCCCCCCCCCNC(=O)c1cc(OCCBr)c2ccccc2c1O`, the melting point was 91 to 93 °C.

The compound `Cc1ccnc(NC(c2ccc(C(F)(F)F)cc2)c2ccc3cccnc3c2O)n1` (stereo not drawn) gave a melting point of 144 to 147 °C.

`CCCCc1nn(-c2cc(NC(=O)CC)ccc2Cl)c(=O)n1Cc1ccc(-c2cc(CC)ccc2S(=O)(=O)NC(=O)c2ccccc2Cl)cc1` registered a melting point of 144 to 146 °C.

As for `CCCN1CC=C(c2cccc3[nH]ccc23)CC1`, the melting point was 105 °C.

Compound `Cn1nc(C(F)(F)F)c(CSC2=NOC(C)(C)C2)c1OC(F)F` displayed a melting point of 39 to 40 °C.

As to `CC(C)C=CC1(C(F)(F)F)OCC(=O)Nc2ccc(F)c(F)c21` (stereo not drawn), the melting point was 159 to 160 °C.

As for `Cc1ccc(S(=O)(=O)OC[C@@H]2COc3ccc4scc(Cl)c4c3O2)cc1`, the melting point is 169 to 170 °C.

`O=C1c2cccc3c(N4CCCC4)c([N+](=O)[O-])cc(c23)C(=O)N1O` came in with a melting point of 249 to 252 °C.

Take `N#CC(=NNc1ccc(C(=O)O)cc1)C(N)=C(C#N)C#N`: the melting point was more than 300 °C.

For `COC(=O)CC[C@H](NC(=O)c1ccc(CCn2cnc3nccc-3c2NO)cc1)C(=O)OC`, the melting point fell in the range of 170 to 172 °C.

The compound `COc1ccc2c(=O)c(C(N)=O)c(N)oc2c1` had a melting point of 265 to 266 °C.

As to `CC(=O)OC(CF)c1ccccc1S(=O)(=O)NC(C)(C)C` (stereo not drawn), the melting point lay within 118 to 119 °C.

For the compound `CCCn1nc2c(N)nc3ccccc3c2c1CC(C)(C)NC(=O)C(C)C`, the melting point fell in the range of 177 to 178 °C.

With `O=S1(=O)c2ccccc2-c2nc3ccccc3c(Cl)c21`, the melting point is 266 to 269 °C.

On to `S=C1Nc2ccccc2Sc2nccn21`, for which the melting point is 156 to 159 °C.

In turn, `O=C(NC1CC1)c1cccc(-c2cccn3c(=O)n(Cc4cccc(C(F)(F)F)c4)nc23)c1` displayed a melting point of 157 to 158 °C.

In turn, `FC(F)(F)c1ccc(OCCC(Br)c2ccccc2)cc1` (stereo not drawn) had a melting point of 61 to 63 °C.

In the case of `COc1ccc(CC(=O)NC(C)(C)C(O)c2ccccc2)cc1OC` (stereo not drawn), the melting point is 123 to 124 °C.

In turn, `CC(C)(CCO)c1ccc(C(=O)Nc2cn3cc(-n4ccnc4)ccc3n2)cc1` had a melting point of 225 to 227 °C.

Compound `CCC1Oc2ccc(Br)cc2N(CC(O)CO)C1=O` (stereo not drawn) returned a melting point of 91 °C.

With `CON(C)C(=O)c1cc(-c2ccccc2)n[nH]1`, the melting point fell in the range of 135 to 138 °C.

In the case of `CCOc1cc(NCCSCc2[nH]cnc2C)nc2ccccc12`, the melting point was in the range of 152 to 154 °C.

Consider `COc1ccnc(N2CCN(Cc3ccc(C(C)NC(C)=O)cc3)CC2)n1` (stereo not drawn), for which the melting point was in the range of 113 to 115 °C.

The compound `CN1CC(=O)Nc2cccc(I)c2C1=O` displayed a melting point of 214 to 217 °C.

Take `Cc1cc(O)nc(CCCCOc2nccc(NC(N)=NCC(F)(F)F)n2)n1`: the melting point was in the range of 191 to 193 °C.

On to `Cc1nc2cc(NC(=O)c3cc4cc(-c5ccccc5)ncc4n3Cc3cccc(F)c3)ccc2n1C`, for which the melting point was 288 to 290 °C.

Compound `O=C1OC(CCc2ccccc2)(c2ccccc2)CC(O)=C1SCc1cccc2ccccc12` (stereo not drawn) came in with a melting point of 132 to 134 °C.

As to `Cc1cccc(C2C(C#N)=C(C3CC3)Nc3n[nH]cc32)c1[N+](=O)[O-]` (stereo not drawn), the melting point is 265 °C.

`CCCc1c(C(C)C)nc(C(C)C)c(CO)c1-c1ccc(F)cc1O` displayed a melting point of 138 to 141 °C.

`Cc1nc(N2CCN(CC3CC3)C2=O)sc1C(=O)NCc1ccncn1` registered a melting point of 188 to 191 °C.

As for `CC(=O)c1cc(Cl)sc1S(N)(=O)=O`, the melting point lay within 178 to 179 °C.

For the compound `CCOC(=O)c1cc(=O)c2cc(C(C)(C)C)cc(C(C)(C)C)c2o1`, the melting point was in the range of 130 to 132 °C.

For `N#CCOc1nsc2ccc(-n3c(=O)cc(C(F)(F)F)[nH]c3=O)cc12`, the melting point was in the range of 254 to 258 °C.

`Cc1nc(/C=C/c2ccc3ccccc3n2)cc(-n2nc(C)nc2C)n1` had a melting point of 153 to 155 °C.

As for `CC1(C)CC(OC(=O)NN)CC(C)(C)N1`, the melting point is 93 to 94 °C.

`Cc1[nH]c2ccc(OCCCCBr)cc2c1C` showed a melting point of 119 to 120 °C.

`Cc1c(Br)cc(C(C)(C)C)c(O)c1C(=O)O` displayed a melting point of 54 to 58 °C.

As for `Cc1cc(C(=O)C(F)(F)F)ccc1NC(=O)OC(C)(C)C`, the melting point is 85 to 87 °C.

`CC(C)c1cccc(C(C)C)c1NC(=O)CNC(c1ccccc1)c1ccc(C(=O)O)cc1` (stereo not drawn): the melting point was in the range of 245 to 246 °C.

In the case of `CN1C(=O)N(C)S(=O)(=O)N(c2ccc(Cl)cc2)C1=O`, the melting point lay in the range of 82 to 84 °C.
